Assay results from patent US20060069132A1, “Azolecarboxamide herbicides” (priority 2004, published 2006).

Legend:
large crabgrass = experiment: Test C pre-/postemergence herbicide test; assay type: in vivo, Digitaria sanguinalis; conditions: for Plant response rating (0 = no effect, 100 = complete control), Crabgrass, Large: 125 g ai/ha
How it was run: (§1)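 Pre/post spray; non-phytotoxic solvent + surfactant. Post-timing 1–4 leaves, 2–18 cm. Read-out: visual % control vs untreated, day 12–14, greenhouse.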

goosegrass = experiment: Test C pre-/postemergence herbicide test; assay type: in vivo, Eleusine indica; conditions: for Plant response rating (0 = no effect, 100 = complete control), Goosegrass: 125 g ai/ha
How it was run: as §1

kochia = experiment: Test C pre-/postemergence herbicide test; assay type: in vivo, Kochia scoparia; conditions: for Plant response rating (0 = no effect, 100 = complete control), Kochia: 125 g ai/ha
How it was run: as §1

pigweed = experiment: Test C pre-/postemergence herbicide test; assay type: in vivo, Amaranthus retroflexus; conditions: for Plant response rating (0 = no effect, 100 = complete control), Pigweed: 125 g ai/ha
How it was run: as §1

common ragweed = experiment: Test C pre-/postemergence herbicide test; assay type: in vivo, Ambrosia elatior; parameters: key to Plant response rating, Ragweed: 0 = no effect, 100 = complete control; conditions: for Plant response rating (0 = no effect, 100 = complete control), Ragweed: 125 g ai/ha
How it was run: as §1

velvetleaf = experiment: Test C pre-/postemergence herbicide test; assay type: in vivo, Abutilon theophrasti; conditions: for Plant response rating (0 = no effect, 100 = complete control), Velvetleaf: 125 g ai/ha
How it was run: as §1

barnyardgrass = experiment: Test C flooded paddy test; assay type: in vivo, Echinochloa crus-galli
How it was run: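 Postemergence sprays applied to plants 2 to 18 cm tall (1- to 4-leaf stage); paddy species grown to 2-leaf stage under flooding. After 12 to 14 days in greenhouse, visual rating versus untreated controls on 0–100 scale (0 no effect, 100 complete control).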

[1] = 62 g ai/ha, preemergence, scale 0 to 100
[2] = 250 g ai/ha, scale 0-100, preemergence
[3] = 500 g ai/ha, scale 0 to 100 (0 no effect, 100 complete control), visual, 12 to 14 days, preemergence

For `CCn1nc2c(c1C(=O)Nc1cc(C(=O)N(C)C)ccc1F)CCC2(C)C` [Compound 352, N-[5-[(dimethylamino)carbonyl]-2-fluorophenyl]-2-ethyl-2,4,5,6-tetrahydro-6,6-dimethyl-3-cyclopentapyrazolecarboxamide], the “Plant response rating (0 = no effect, 100 = complete control), Crabgrass, Large” value (large crabgrass; preemergence) was 85, the pest or weed control at 62 g/ha (large crabgrass; Digitaria sanguinalis, pre-emergence, 312 h, 62 g ai/ha, preemergence, scale 0 to 100, read-out: Plant response rating, Crabgrass, Large) was 55% and the pest or weed control at 250 g/ha (large crabgrass; Digitaria sanguinalis, pre-emergence, 312 h, 250 g ai/ha, scale 0-100, read-out: Plant response rating, Crabgrass, Large) was 100%. For the same compound, the pest or weed control at 500 g/ha (large crabgrass; Digitaria sanguinalis, pre-emergence, 312 h, 500 g ai/ha, scale 0 to 100 (0 no effect, 100 complete control), visual, 12 to 14 days, read-out: Plant response rating, Crabgrass, Large) was 100%, the “Plant response rating (0 = no effect, 100 = complete control), Goosegrass” value (goosegrass; preemergence) was 85 and the pest or weed control at 62 g/ha (goosegrass; Eleusine indica, pre-emergence, 312 h, 62 g ai/ha, preemergence, scale 0 to 100, read-out: Plant response rating, Goosegrass) was 80%. The pest or weed control at 250 g/ha (goosegrass; Eleusine indica, pre-emergence, 312 h, 250 g ai/ha, scale 0-100, read-out: Plant response rating, Goosegrass) was 100%, the pest or weed control at 500 g/ha (goosegrass; Eleusine indica, pre-emergence, 312 h, 500 g ai/ha, scale 0 to 100 (0 no effect, 100 complete control), visual, 12 to 14 days, read-out: Plant response rating, Goosegrass) was 100% and the “Plant response rating (0 = no effect, 100 = complete control), Kochia” value (kochia; preemergence) was 85. For the same compound, the pest or weed control at 62 g/ha (kochia; Bassia scoparia, pre-emergence, 62 g ai/ha, preemergence, scale 0 to 100, read-out: Plant response rating, Kochia) was 80%, the pest or weed control at 250 g/ha (kochia; Bassia scoparia, pre-emergence, 250 g ai/ha, scale 0-100, read-out: Plant response rating, Kochia) was 100% and the pest or weed control at 500 g/ha (kochia; Bassia scoparia, pre-emergence, 500 g ai/ha, scale 0 to 100 (0 no effect, 100 complete control), visual, 12 to 14 days, read-out: Plant response rating, Kochia) was 100%. The “Plant response rating (0 = no effect, 100 = complete control), Pigweed” value (pigweed; preemergence) was 85, the pest or weed control at 62 g/ha (pigweed; Amaranthus retroflexus, pre-emergence, 62 g ai/ha, preemergence, scale 0 to 100, read-out: Plant response rating, Pigweed) was 40% and the pest or weed control at 250 g/ha (pigweed; Amaranthus retroflexus, pre-emergence, 250 g ai/ha, scale 0-100, read-out: Plant response rating, Pigweed) was 100%. The pest or weed control at 500 g/ha (pigweed; Amaranthus retroflexus, pre-emergence, 500 g ai/ha, scale 0 to 100 (0 no effect, 100 complete control), visual, 12 to 14 days, read-out: Plant response rating, Pigweed) was 100%, the “Plant response rating (0 = no effect, 100 = complete control), Ragweed” value (common ragweed; preemergence) was 40 and the pest or weed control at 62 g/ha (common ragweed; Ambrosia artemisiifolia, pre-emergence, 62 g ai/ha, preemergence, scale 0 to 100, read-out: Plant response rating, Ragweed) was 0%. For the same compound, the pest or weed control at 250 g/ha (common ragweed; Ambrosia artemisiifolia, pre-emergence, 250 g ai/ha, scale 0-100, read-out: Plant response rating, Ragweed) was 50%, the pest or weed control at 500 g/ha (common ragweed; Ambrosia artemisiifolia, pre-emergence, 500 g ai/ha, scale 0 to 100 (0 no effect, 100 complete control), visual, 12 to 14 days, read-out: Plant response rating, Ragweed) was 60% and the “Plant response rating (0 = no effect, 100 = complete control), Velvetleaf” value (velvetleaf; preemergence) was 5. The pest or weed control at 62 g/ha (velvetleaf; Abutilon theophrasti, pre-emergence, 62 g ai/ha, preemergence, scale 0 to 100, read-out: Plant response rating, Velvetleaf) was 0%, the pest or weed control at 250 g/ha (velvetleaf; Abutilon theophrasti, pre-emergence, 250 g ai/ha, scale 0-100, read-out: Plant response rating, Velvetleaf) was 70% and the pest or weed control at 500 g/ha (velvetleaf; Abutilon theophrasti, pre-emergence, 500 g ai/ha, scale 0 to 100 (0 no effect, 100 complete control), visual, 12 to 14 days, read-out: Plant response rating, Velvetleaf) was 100%. It also gave a pest or weed control at 62 g/ha (barnyardgrass; Echinochloa crus-galli, 62 g ai/ha, scale 0 to 100 (0 no effect, 100 complete control), read-out: Barnyardgrass plant response rating) of 25%, a pest or weed control at 125 g/ha (barnyardgrass; Echinochloa crus-galli, 125 g ai/ha, scale 0 to 100 (0 no effect, 100 complete control), read-out: Barnyardgrass plant response rating) of 45% and a pest or weed control at 250 g/ha (barnyardgrass; Echinochloa crus-galli, 250 g ai/ha, scale of 0 to 100, 0 is no effect, 100 is complete control, read-out: Barnyardgrass plant response rating) of 65%. For the same compound, the pest or weed control at 500 g/ha (barnyardgrass; Echinochloa crus-galli, 500 g ai/ha, visual rating after 12 to 14 days, scale 0 to 100 (0 no effect, 100 complete control), read-out: Plant response rating, Barnyardgrass) was 90%.
In the case of `Cc1nn(C(C)(C)C)nc1C(=O)Nc1cccc(C(=O)N2CC=CC2)c1` [Compound 393], the “Plant response rating, Crabgrass, Large” value (large crabgrass; [1]) was 95, the “Plant response rating (0 = no effect, 100 = complete control), Crabgrass, Large” value (large crabgrass; preemergence) was 100 and the “Plant response rating, Crabgrass, Large” value (large crabgrass; [2]) was 100. For the same compound, the “Plant response rating, Crabgrass, Large” value (large crabgrass; [3]) was 100, the “Plant response rating, Goosegrass” value (goosegrass; [1]) was 85 and the “Plant response rating (0 = no effect, 100 = complete control), Goosegrass” value (goosegrass; preemergence) was 100. For the same compound, the “Plant response rating, Goosegrass” value (goosegrass; [2]) was 100, the “Plant response rating, Goosegrass” value (goosegrass; [3]) was 100 and the “Plant response rating, Kochia” value (kochia; [1]) was 0. The “Plant response rating (0 = no effect, 100 = complete control), Kochia” value (kochia; preemergence) was 100, the “Plant response rating, Kochia” value (kochia; [2]) was 100 and the “Plant response rating, Kochia” value (kochia; [3]) was 100. For the same compound, the “Plant response rating, Pigweed” value (pigweed; [1]) was 90, the “Plant response rating (0 = no effect, 100 = complete control), Pigweed” value (pigweed; preemergence) was 100 and the “Plant response rating, Pigweed” value (pigweed; [2]) was 100. For the same compound, the “Plant response rating, Pigweed” value (pigweed; [3]) was 100, the “Plant response rating, Ragweed” value (common ragweed; [1]) was 20 and the “Plant response rating (0 = no effect, 100 = complete control), Ragweed” value (common ragweed; preemergence) was 100. For the same compound, the “Plant response rating, Ragweed” value (common ragweed; [2]) was 100, the “Plant response rating, Ragweed” value (common ragweed; [3]) was 100 and the “Plant response rating, Velvetleaf” value (velvetleaf; [1]) was 65. For the same compound, the “Plant response rating (0 = no effect, 100 = complete control), Velvetleaf” value (velvetleaf; preemergence) was 100, the “Plant response rating, Velvetleaf” value (velvetleaf; [2]) was 100 and the “Plant response rating, Velvetleaf” value (velvetleaf; [3]) was 100. For the same compound, the “Barnyardgrass plant response rating” value (barnyardgrass; 62 g ai/ha, scale 0 to 100 (0 no effect, 100 complete control)) was 45, the “Barnyardgrass plant response rating” value (barnyardgrass; 125 g ai/ha, scale 0 to 100 (0 no effect, 100 complete control)) was 65 and the “Barnyardgrass plant response rating” value (barnyardgrass; 250 g ai/ha, scale of 0 to 100, 0 is no effect, 100 is complete control) was 75. For the same compound, the “Plant response rating, Barnyardgrass” value (barnyardgrass; 500 g ai/ha, visual rating after 12 to 14 days, scale 0 to 100 (0 no effect, 100 complete control)) was 95.
